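The compound was tested at five concentrations on cells cultured in 96-well plates, with a 48-hour exposure period. Here, GI50 denotes the concentration required for 50% inhibition of growth.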 Calls of active or inactive are those of the source. Rule as the data show it: active = GI50 up to about 1.1 µM and inactive = higher.
Key:
Assay in all cases: NCI anticancer screen, dose series, 48 h
[1] = test system: A498
[2] = test system: A549
[3] = test system: CAKI-1
[4] = test system: COLO 205
[5] = test system: EKVX
[6] = test system: HCT-116
[7] = test system: HCT-15
[8] = test system: HT-29
[9] = test system: NCI-H522
[10] = test system: OVCAR-4
[11] = test system: OVCAR-8
[12] = test system: RPMI-8226
[13] = test system: SK-MEL-5
[14] = test system: SK-OV-3
[15] = test system: SN12C
[16] = test system: TK-10
[17] = test system: U-251
[18] = test system: DU-145
[19] = test system: MDA-MB-435
[20] = test system: MCF7

Structure (SMILES) | GI50 [1] | GI50 [2] | GI50 [3] | GI50 [4] | GI50 [5] | GI50 [6] | GI50 [7] | GI50 [8] | GI50 [9] | GI50 [10] | GI50 [11] | GI50 [12] | GI50 [13] | GI50 [14] | GI50 [15] | GI50 [16] | GI50 [17] | GI50 [18] | GI50 [19] | GI50 [20]
O=C1[C@H]2ON(c3ccccc3)C(c3ccc([N+](=O)[O-])cc3)[C@H]2C(=O)N1c1ccc(Cc2ccc(N3C(=O)[C@@H]4ON(c5ccccc5)C(c5ccc([N+](=O)[O-])cc5)[C@@H]4C3=O)cc2)cc1 (stereo partly drawn) | > 100 µM (inactive) | > 100 µM (inactive) | 26.1 µM (inactive) | 58.7 µM (inactive) | > 100 µM (inactive) | > 100 µM (inactive) | > 100 µM | > 100 µM (inactive) | > 100 µM (inactive) | > 100 µM (inactive) | > 100 µM (inactive) | > 100 µM (inactive) | 40.1 µM (inactive) | > 100 µM (inactive) | > 100 µM (inactive) | > 100 µM (inactive) | > 100 µM (inactive) | – | – | –
N#Cc1c(-c2ccc(Cl)cc2)cc(-c2ccc(Nc3ccnc4cc(Cl)ccc34)cc2)nc1N | > 100 µM (inactive) | > 100 µM (inactive) | > 100 µM (inactive) | > 100 µM (inactive) | > 100 µM (inactive) | > 100 µM (inactive) | > 100 µM | – | 41.7 µM (inactive) | 38.2 µM (inactive) | 40.1 µM (inactive) | > 100 µM (inactive) | – | > 100 µM (inactive) | – | > 100 µM (inactive) | 97.1 µM (inactive) | > 100 µM (inactive) | > 100 µM (inactive) | –
CC1(c2ccc[n+](Cc3ccccc3)c2)OCCO1 | > 100 µM (inactive) | > 100 µM (inactive) | > 100 µM (inactive) | > 100 µM (inactive) | > 100 µM (inactive) | > 100 µM (inactive) | > 100 µM | > 100 µM (inactive) | > 100 µM (inactive) | > 100 µM (inactive) | > 100 µM (inactive) | > 100 µM (inactive) | > 100 µM (inactive) | > 100 µM (inactive) | > 100 µM (inactive) | > 100 µM (inactive) | > 100 µM (inactive) | – | – | –
Cc1ccccc1NC(=O)c1c(C)oc2c1C(=O)c1ccccc1C2=O | 63.5 µM (inactive) | 32.7 µM (inactive) | > 80.7 µM (inactive) | 53.3 µM (inactive) | > 72.6 µM (inactive) | 32.1 µM (inactive) | 32.1 µM | 35.9 µM (inactive) | 16.5 µM (inactive) | 2.09 µM (inactive) | 41.5 µM (inactive) | 22.6 µM (inactive) | 13.2 µM (inactive) | > 100 µM (inactive) | > 53.7 µM (inactive) | > 100 µM (inactive) | 7.89 µM (inactive) | – | – | –
CC(C)(C)OC(=O)C1/C(=C/CO)CN1C(=O)OC(C)(C)C (stereo not drawn) | > 100 µM (inactive) | > 100 µM (inactive) | > 100 µM (inactive) | > 100 µM (inactive) | > 100 µM (inactive) | > 100 µM (inactive) | > 100 µM | > 100 µM (inactive) | – | 63.7 µM (inactive) | > 100 µM (inactive) | > 100 µM (inactive) | > 100 µM (inactive) | > 100 µM (inactive) | > 100 µM (inactive) | > 100 µM (inactive) | – | – | > 100 µM (inactive) | > 100 µM (inactive)
O=C(COc1cc(=O)oc2ccccc12)c1ccccc1 | 60.7 µM (inactive) | 97.3 µM (inactive) | 4.69 µM (inactive) | – | > 100 µM (inactive) | 17.9 µM (inactive) | > 100 µM | 22.6 µM (inactive) | 32.4 µM (inactive) | 29.6 µM (inactive) | 33 µM (inactive) | > 100 µM (inactive) | 37.7 µM (inactive) | – | > 100 µM (inactive) | > 100 µM (inactive) | 17.7 µM (inactive) | > 100 µM (inactive) | – | > 100 µM (inactive)
NN/C(=N\S(=O)(=O)c1cc2ccccc2o1)Nc1ccc(Cl)cc1 | > 100 µM (inactive) | > 100 µM (inactive) | > 100 µM (inactive) | > 100 µM (inactive) | 91.2 µM (inactive) | > 100 µM (inactive) | > 100 µM | > 100 µM (inactive) | 24.4 µM (inactive) | > 100 µM (inactive) | 51.1 µM (inactive) | > 100 µM (inactive) | > 100 µM (inactive) | 42.8 µM (inactive) | > 100 µM (inactive) | 72.6 µM (inactive) | 46.6 µM (inactive) | > 100 µM (inactive) | – | > 100 µM (inactive)
C[C@]12C=CC(=O)C=C1CC[C@@H]1[C@@H]2CC[C@@]2(C)[C@H]1CC[C@]2(O)C(N)=O | > 100 µM (inactive) | > 100 µM (inactive) | – | > 100 µM (inactive) | > 100 µM (inactive) | > 100 µM (inactive) | > 100 µM | > 100 µM (inactive) | > 100 µM (inactive) | > 100 µM (inactive) | > 100 µM (inactive) | > 100 µM (inactive) | > 100 µM (inactive) | > 100 µM (inactive) | > 100 µM (inactive) | > 100 µM (inactive) | > 100 µM (inactive) | > 100 µM (inactive) | > 100 µM (inactive) | –
O=C(NC1CCC(=O)N1C(=O)OCc1ccccc1)OCc1ccccc1 (stereo not drawn) | – | > 100 µM (inactive) | > 100 µM (inactive) | > 100 µM (inactive) | – | – | > 100 µM | > 100 µM (inactive) | > 100 µM (inactive) | – | > 100 µM (inactive) | > 100 µM (inactive) | > 100 µM (inactive) | > 100 µM (inactive) | > 100 µM (inactive) | > 100 µM (inactive) | > 100 µM (inactive) | > 100 µM (inactive) | > 100 µM (inactive) | > 100 µM (inactive)
C/C(=N\N=C(N)N)c1c(C(=O)OCCCCCCOC(=O)c2nc3sccn3c2/C(C)=N/N=C(N)N)nc2sccn12 | > 100 µM (inactive) | > 100 µM (inactive) | > 100 µM (inactive) | > 100 µM (inactive) | > 100 µM (inactive) | > 100 µM (inactive) | > 100 µM | > 100 µM (inactive) | > 100 µM (inactive) | > 100 µM (inactive) | 42.9 µM (inactive) | 85.3 µM (inactive) | 99.1 µM (inactive) | – | > 100 µM (inactive) | 22.8 µM (inactive) | 37.7 µM (inactive) | – | > 100 µM (inactive) | 47.4 µM (inactive)
O=C1C=C(Nc2ccc(S(=O)(=O)Nc3ncccn3)cc2)c2ccccc2C1=O | 30.3 µM (inactive) | 25.3 µM (inactive) | 32.1 µM (inactive) | 22.5 µM (inactive) | 24.7 µM (inactive) | 18.9 µM (inactive) | 22.5 µM | 22.6 µM (inactive) | 17.8 µM (inactive) | 21.8 µM (inactive) | 20.2 µM (inactive) | 37.6 µM (inactive) | 18.2 µM (inactive) | 26.7 µM (inactive) | 21.5 µM (inactive) | 37.4 µM (inactive) | 17.6 µM (inactive) | – | – | –
Oc1ccc2ccccc2c1/N=N/c1ccc(Cl)cc1 | – | > 100 µM (inactive) | > 100 µM (inactive) | 53 µM (inactive) | > 100 µM (inactive) | 51.9 µM (inactive) | > 100 µM | > 100 µM (inactive) | > 100 µM (inactive) | > 100 µM (inactive) | > 100 µM (inactive) | > 100 µM (inactive) | > 100 µM (inactive) | > 100 µM (inactive) | > 100 µM (inactive) | > 100 µM (inactive) | > 100 µM (inactive) | > 100 µM (inactive) | > 100 µM (inactive) | –
O=C1NC(=S)NC(=O)C1=CC1CC1 | > 100 µM (inactive) | > 100 µM (inactive) | > 100 µM (inactive) | > 100 µM (inactive) | > 100 µM (inactive) | > 100 µM (inactive) | > 100 µM | > 100 µM (inactive) | > 100 µM (inactive) | > 100 µM (inactive) | > 100 µM (inactive) | > 100 µM (inactive) | > 100 µM (inactive) | > 100 µM (inactive) | > 100 µM (inactive) | > 100 µM (inactive) | > 100 µM (inactive) | – | – | –
CCOC(=O)C1=C(OC(OCC)C(C)[Se]c2ccccc2)CCC1 (stereo not drawn) | > 100 µM (inactive) | 49.9 µM (inactive) | 51.1 µM (inactive) | 25.1 µM (inactive) | 21.6 µM (inactive) | 18.9 µM (inactive) | 17.5 µM | 28.1 µM (inactive) | 13.1 µM (inactive) | 18 µM (inactive) | 16 µM (inactive) | 13 µM (inactive) | 19.1 µM (inactive) | 94 µM (inactive) | 14.6 µM (inactive) | > 100 µM (inactive) | 6.78 µM (inactive) | – | – | –
CCCCOc1ccc(S(=O)(=O)/N=C(\NN)Nc2ccc(Cl)cc2)cc1 | 47.1 µM (inactive) | 17.8 µM (inactive) | 21.5 µM (inactive) | 18 µM (inactive) | 45.4 µM (inactive) | 20 µM (inactive) | 36 µM | 22.3 µM (inactive) | – | 19.1 µM (inactive) | 19 µM (inactive) | 30.1 µM (inactive) | 35.9 µM (inactive) | 27 µM (inactive) | 19.2 µM (inactive) | 43.5 µM (inactive) | 16.4 µM (inactive) | 17.2 µM (inactive) | – | 32.1 µM (inactive)
CCN(CC)C(=O)CCNC(C)Cc1c[nH]c2ccccc12 (stereo not drawn) | > 100 µM (inactive) | > 100 µM (inactive) | > 100 µM (inactive) | > 100 µM (inactive) | > 100 µM (inactive) | > 100 µM (inactive) | > 100 µM | > 100 µM (inactive) | > 100 µM (inactive) | > 100 µM (inactive) | > 100 µM (inactive) | > 100 µM (inactive) | > 100 µM (inactive) | > 100 µM (inactive) | > 100 µM (inactive) | > 100 µM (inactive) | > 100 µM (inactive) | > 100 µM (inactive) | > 100 µM (inactive) | –

Source: ChEMBL document CHEMBL1201862, “PubChem BioAssay data set” (2004)
